# Patent publication US10188107B2 (Heinrich Heine Universität Düsseldorf, priority 2013, dated 2019)
# Tests used:
# [1] = target: T1, PEP carboxylase from F. trinervia (C4 PEPC) (Flaveria trinervia, UniProt P30694); experiment: Spectrophotometric coupled assay with malate dehydrogenase, C4 PEP carboxylase; format: biochemical; conditions: range of concentrations, triplicate; C3 PEPC activity compared at the C4 IC50 concentration (figure legend)
# T1 construct: histidine tag; made in house; host or cells: E. coli
# T1 sequence (P30694 1-966): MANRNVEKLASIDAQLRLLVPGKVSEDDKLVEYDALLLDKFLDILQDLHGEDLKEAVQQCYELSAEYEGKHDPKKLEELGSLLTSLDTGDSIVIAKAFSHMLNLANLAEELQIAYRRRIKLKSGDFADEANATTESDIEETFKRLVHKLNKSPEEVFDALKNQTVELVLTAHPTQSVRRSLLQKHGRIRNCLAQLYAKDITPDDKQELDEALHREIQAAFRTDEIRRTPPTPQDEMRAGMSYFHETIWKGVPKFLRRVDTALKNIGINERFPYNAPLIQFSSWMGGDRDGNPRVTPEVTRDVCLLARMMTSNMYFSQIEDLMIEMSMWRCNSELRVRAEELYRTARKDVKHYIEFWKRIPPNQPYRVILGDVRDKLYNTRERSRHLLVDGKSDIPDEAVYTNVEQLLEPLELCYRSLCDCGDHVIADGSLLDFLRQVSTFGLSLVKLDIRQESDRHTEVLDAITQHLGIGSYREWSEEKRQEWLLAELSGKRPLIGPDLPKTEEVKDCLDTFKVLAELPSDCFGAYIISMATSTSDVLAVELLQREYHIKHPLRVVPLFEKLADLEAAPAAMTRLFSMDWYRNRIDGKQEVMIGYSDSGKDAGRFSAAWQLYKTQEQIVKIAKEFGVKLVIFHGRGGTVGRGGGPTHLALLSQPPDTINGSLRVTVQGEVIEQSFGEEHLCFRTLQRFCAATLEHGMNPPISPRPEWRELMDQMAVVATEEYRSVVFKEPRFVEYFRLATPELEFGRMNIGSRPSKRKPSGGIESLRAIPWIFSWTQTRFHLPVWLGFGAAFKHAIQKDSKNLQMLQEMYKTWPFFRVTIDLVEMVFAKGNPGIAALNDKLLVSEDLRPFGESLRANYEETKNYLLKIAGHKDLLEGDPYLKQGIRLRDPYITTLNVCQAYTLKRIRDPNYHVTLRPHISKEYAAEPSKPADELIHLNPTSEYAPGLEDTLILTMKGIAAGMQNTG
# Excerpt: How to determine the activity of a PEP carboxylase is well known in the art. E.g, the formation of oxaloacetate can be determined spectrophotometrically, e.g., in a malate dehydrogenase coupled system. The reaction velocity can be measured as a decrease in A340 resulting from the oxidation of NADH.
# Inhibition of purified PEP carboxylases from F. pringlei and F. trinervia by compounds selected from the VDS was monitored by a spectrophotometric coupled assay with malate dehydrogenase which reduces the oxaloacetate formed by PEP carboxylase to malate. The simultaneous oxidation of NADH is followed at 340 nm with standard optical equipment. The concentration of the inhibitors selected from the VDS was varied in the coupled assay to determine the half maximal inhibitory concentration (IC50).
# [2] = system: PEP carboxylase from C4 plant Amaranthus viridis; conditions: cited from earlier work
# [3] = target: pyruvate phosphate dikinase (PPDK); conditions: isolated enzyme; read-out: half maximal inhibitory concentration (IC50); cited from earlier work
Compound,Inhibition of a C4-PEPC [1],inhibition of PEP carboxylase from Amaranthus viridis [2],further results
"O=C(O)c1cc(/C=C/c2cc(O)ccc2O)ccc1O [1-(3′-carboxy-4′-hydroxyphenyl)-2-(2,5-dihydroxyphenl(ethene)]",Selective inhibition,,
"COc1cc2ncc(-c3ccc(O)c(O)c3)nc2cc1OC [2-(3,4-Dihydroxyphenyl)-6,7-dimethoxyquinoxaline]",Inhibition,,
O=C(/C=C/c1ccc(O)c(O)c1)c1ccc(O)cc1O [butein],Selective inhibition,,
O=c1c(O)c(-c2ccc(O)c(O)c2)oc2cc(O)ccc12 [fisetin],,inhibited,
O=c1c(O)c(-c2ccc(O)cc2)oc2cc(O)cc(O)c12 [kaempferol],,inhibited,
O=c1c(O)c(-c2ccc(O)cc2O)oc2cc(O)cc(O)c12 [morin],,inhibited,
O=c1c(O)c(-c2cc(O)c(O)c(O)c2)oc2cc(O)cc(O)c12 [myricetin],,inhibited,
O=c1c(O)c(-c2ccc(O)c(O)c2)oc2cc(O)cc(O)c12 [quercetin],,inhibited,
C/C=C(\C)c1cc(O)c(C)c2c1Oc1cc(O)cc(C)c1C(=O)O2 [unguinol],,,IC50 [3]: 40 µM
baicalein/baicalin,,inhibited,
catechin,Inhibition,,
